Assay results taken from patent US7303921B2, “Method to assay coenzyme Q10 in blood plasma or blood serum” (priority 2002, dated 2007).
Several values for one entry are separate records, joined by “and”; a condition that tells them apart may be missing. Equal values may be shown once.

Assays:
[1] = Stability of total CoQ10 in plasma at different storage conditions and times; format: physicochemical, human
Protocol: In order to check the stability of total CoQ10 in plasma, aliquots of 3 different samples were kept for 3 days at 4° C., room temperature (22° C.) and at −20° C. respectively.
(§1) Description of the Analysis. 200 μl of a blood plasma sample were supplemented with 50 μl of a 1,4 benzoquinone solution (2 mg/ml) in a test tube and vortexed for 10 seconds. After 10 minutes, 1 ml of n-propanol was added. The test tube was vortexed for 10 seconds and centrifuged at 10,000 rpm for 2 minutes in order to spin down the protein precipitate. 200 μl of the supernatant were injected into the HPLC. […] Mobile phase was constituted by ethanol-methanol (65%-35%) and the flux was 1 ml/min. UV detection was performed at 275 nm.

[2] = Stability of the n-propanol extract (supernatant) of plasma CoQ10; format: physicochemical
Protocol: as §1
For practical reasons the propanol extract can be kept in the refrigerator up to 3 days before injection into the HPLC. Several samples were checked by analysing them 1 hour, 1, 2 and 4 days after drawing the blood, keeping the samples at −20° C., 0-4° C., or +22° C. (room temperature) and the results, as far as total CoQ10 was concerned, were the same for the same sample whether kept at different temperatures or for different lengths of time (presumably only the reduced/oxidised CoQ10 ratio changed). There was no need to add any stabilizing agent to the sample.

## COC1=C(OC)C(=O)C(C/C=C(\C)CC/C=C(\C)CC/C=C(\C)CC/C=C(\C)CC/C=C(\C)CC/C=C(\C)CC/C=C(\C)CC/C=C(\C)CC/C=C(\C)CCC=C(C)C)=C(C)C1=O [CoQ10]
[1]; 0-4° C., 72 h, plasma samples A, B, C
  Mean total CoQ10: 1.82 µM and 1.11 µM
[1]; 1 hour, 1, 2 and 4 days after drawing the blood, −20° C., 0-4° C. or +22° C., no stabilizing agent
  total CoQ10 result after storage of samples: the same
[1]; even when kept at room temperature
  stability of total CoQ10 in plasma: practically stable for at least three days
[2]; capped test tube, kept at 22° C.
  stability of supernatant (propanol extract): stable for up to three days
[2]; in the refrigerator
  time the propanol extract can be kept before injection into the HPLC: up to 3 days
